From patent US11617753B2 (priority 2016, dated 2023)
Where a name gives a salt, the structure may show the parent alone. Read-outs that look alike come from different tables or passages of the source.

Assays:
[1] = target: T1, Ebola L polymerase (Zaire ebolavirus, UniProt Q05318); experiment: cell-based; design: species or system Ebola virus
[2] = test system: EBOV-Mak; experiment: microbe, parasite or virus in culture; type: cell-based; details: Zaire ebolavirus, Huh-7, read-out: IC50, inhibition of Ebola infectivity
[3] = target: T2, Ebola VP40 protein (Zaire ebolavirus, UniProt Q05128); type: cell-based, Ebola virus
[4] = test system: Huh7 cells; details: human
[5] = target: T1, Ebola L polymerase; type: cell-based, Ebola virus; details: 15 μM
[6] = target: T2, Ebola VP40 protein; type: cell-based, Ebola virus; remark: listed apart in the source

T1 sequence (Q05318 whole entry, looked up): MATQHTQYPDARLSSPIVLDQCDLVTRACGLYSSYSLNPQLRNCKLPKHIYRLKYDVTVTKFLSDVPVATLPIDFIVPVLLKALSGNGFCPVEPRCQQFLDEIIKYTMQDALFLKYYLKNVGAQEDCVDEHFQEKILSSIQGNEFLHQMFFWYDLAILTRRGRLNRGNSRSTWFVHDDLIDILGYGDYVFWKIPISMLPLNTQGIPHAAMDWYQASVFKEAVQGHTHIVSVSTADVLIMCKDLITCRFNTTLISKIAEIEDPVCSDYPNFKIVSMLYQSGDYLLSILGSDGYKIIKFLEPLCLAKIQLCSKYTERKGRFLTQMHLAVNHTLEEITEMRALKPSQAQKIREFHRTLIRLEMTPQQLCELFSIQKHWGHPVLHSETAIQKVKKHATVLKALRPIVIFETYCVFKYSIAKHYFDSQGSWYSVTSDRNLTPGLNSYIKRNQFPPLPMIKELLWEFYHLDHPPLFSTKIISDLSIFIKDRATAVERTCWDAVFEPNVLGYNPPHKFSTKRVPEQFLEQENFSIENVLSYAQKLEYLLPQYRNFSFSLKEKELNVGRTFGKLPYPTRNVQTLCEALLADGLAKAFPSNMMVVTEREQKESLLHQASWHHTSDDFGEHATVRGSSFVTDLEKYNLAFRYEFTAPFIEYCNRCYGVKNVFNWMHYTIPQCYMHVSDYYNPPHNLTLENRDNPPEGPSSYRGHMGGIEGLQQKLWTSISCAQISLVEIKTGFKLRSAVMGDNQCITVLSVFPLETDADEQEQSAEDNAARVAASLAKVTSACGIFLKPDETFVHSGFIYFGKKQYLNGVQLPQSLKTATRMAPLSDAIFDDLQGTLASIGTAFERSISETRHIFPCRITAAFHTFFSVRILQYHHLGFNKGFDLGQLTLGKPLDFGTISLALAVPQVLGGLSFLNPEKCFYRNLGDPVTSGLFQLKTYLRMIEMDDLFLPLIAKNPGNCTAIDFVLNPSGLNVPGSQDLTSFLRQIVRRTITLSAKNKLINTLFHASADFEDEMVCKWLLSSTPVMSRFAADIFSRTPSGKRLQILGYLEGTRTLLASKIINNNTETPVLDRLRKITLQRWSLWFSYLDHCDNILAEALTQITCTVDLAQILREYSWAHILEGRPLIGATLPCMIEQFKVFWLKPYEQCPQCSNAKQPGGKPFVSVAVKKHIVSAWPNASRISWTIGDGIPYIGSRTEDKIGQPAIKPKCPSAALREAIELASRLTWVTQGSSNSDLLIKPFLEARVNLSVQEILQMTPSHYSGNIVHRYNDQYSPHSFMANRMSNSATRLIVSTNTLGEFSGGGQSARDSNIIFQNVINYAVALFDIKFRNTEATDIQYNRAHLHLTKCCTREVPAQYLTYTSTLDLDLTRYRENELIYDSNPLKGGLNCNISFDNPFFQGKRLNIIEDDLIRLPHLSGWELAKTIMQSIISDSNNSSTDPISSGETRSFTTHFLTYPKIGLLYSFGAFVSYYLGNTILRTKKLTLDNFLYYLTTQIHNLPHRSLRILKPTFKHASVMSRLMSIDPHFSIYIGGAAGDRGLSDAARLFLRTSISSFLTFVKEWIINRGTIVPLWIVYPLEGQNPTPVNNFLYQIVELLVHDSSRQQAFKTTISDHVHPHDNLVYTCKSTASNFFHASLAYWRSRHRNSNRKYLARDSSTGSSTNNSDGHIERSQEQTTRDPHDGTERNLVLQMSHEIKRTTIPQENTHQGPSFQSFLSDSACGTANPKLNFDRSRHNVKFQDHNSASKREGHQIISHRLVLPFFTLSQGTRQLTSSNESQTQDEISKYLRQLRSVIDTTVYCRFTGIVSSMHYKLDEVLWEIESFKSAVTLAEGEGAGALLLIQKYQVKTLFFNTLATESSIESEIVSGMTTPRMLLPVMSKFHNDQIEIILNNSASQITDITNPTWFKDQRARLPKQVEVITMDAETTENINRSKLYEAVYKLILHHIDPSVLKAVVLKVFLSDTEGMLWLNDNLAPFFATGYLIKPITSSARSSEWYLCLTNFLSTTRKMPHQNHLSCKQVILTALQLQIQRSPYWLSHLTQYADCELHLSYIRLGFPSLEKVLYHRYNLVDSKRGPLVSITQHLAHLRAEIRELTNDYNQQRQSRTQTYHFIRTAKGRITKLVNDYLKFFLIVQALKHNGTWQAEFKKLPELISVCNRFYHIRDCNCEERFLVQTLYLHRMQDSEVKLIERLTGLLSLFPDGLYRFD
T2 sequence (Q05128 whole entry, looked up): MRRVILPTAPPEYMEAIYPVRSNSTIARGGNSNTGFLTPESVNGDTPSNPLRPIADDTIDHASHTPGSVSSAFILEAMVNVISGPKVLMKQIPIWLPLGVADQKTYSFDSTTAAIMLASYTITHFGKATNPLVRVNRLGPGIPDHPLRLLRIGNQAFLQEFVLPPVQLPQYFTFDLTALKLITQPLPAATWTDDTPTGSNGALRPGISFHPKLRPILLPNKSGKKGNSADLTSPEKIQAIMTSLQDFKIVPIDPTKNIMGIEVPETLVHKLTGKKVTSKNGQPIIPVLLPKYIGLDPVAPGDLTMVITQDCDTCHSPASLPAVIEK

NC(=O)c1cn([C@@H]2O[C@H](CO)[C@@H](O)[C@H]2O)c2ncnc(N)c12 [sangivamycin, 4-amino-7-((2R,3R,4S,5R)-3,4-dihydroxy-5-(hydroxymethyl)tetrahydrofuran-2-yl)-7H-pyrrolo[2,3-d]pyrimidine-5-carboxamide]
IC50 [1]: 0.03 µM
IC50 [2]: ~0.1 µM
VLP isolated (western blot for VP40) ([3]; 50 nM): clear reduction in VLP
VLP isolated (western blot for VP40) ([3]; 500 nM): drastic reduction in VLP
50% cytotoxicity concentration [4]: > 600 nM
% EGFP signal [5]: 27%
% mCherry signal [5]: 4%
EGFP fluorescent signal, % of solvent control signal, dose-response [6]: largest decrease in signal
concentration at which VLP formation in the cell is prevented (shift in membrane associated VP40) [6]: above 37.5 nM

NC(=O)c1cn([C@@H]2O[C@H](CO)[C@@H](O)[C@H]2O)c2ncnc(N)c12 [sangivamycin HCl, 4-amino-7-((2R,3R,4S,5R)-3,4-dihydroxy-5-(hydroxymethyl)tetrahydrofuran-2-yl)-7H-pyrrolo[2,3-d]pyrimidine-5-carboxamide (sangivamycin) hydrochloride]
% EGFP signal ([5]; hydrochloride): 20%
% mCherry signal ([5]; hydrochloride): 10%
